The source of these data is patent US20260191923A1, “COMPOSITIONS” (GIVAUDAN SA, priority 2022, published 2026).

Common to all, as to assay type: cell-based
Experiment [1] relates to human gut microbiome. Nature of the experiment: Short term colonic simulation: microbial metabolite (SCFA) production by capillary gas chromatography-FID. The following applies: 48 hours colonic fermentation; acerola 3.5 g/L, sugar control 1.75 g/L, ascorbic acid 1.67 g/L; FIG. 1. The text has this:
The test products used in these experiments included a red acerola fruit powder containing 20% vitamin C and a green acerola fruit powder containing 34% vitamin C provided by Naturex-Givaudan. Commercial synthetic ascorbic acid and a 55:45 mixture of fructose and glucose served as relevant control groups. The test products contained a fraction of digestible compounds (sugar, for e.g.) that, in vivo, are absorbed in the small intestine following conversion to small molecules by digestive enzymes. […] Stock solutions of test products and controls were prepared and exposed to conditions simulating oral, gastric, and small intestinal passage. Typically, a dialysis procedure is employed to simulate absorption of small molecules in the small intestine, but this step was omitted for these test products, as the dialysis procedure would lead to losses of compounds in acerola (polyphenols) that would reach the colon in vivo and exert an effect on the microbiome. A 48 hours colonic fermentation was performed in the presence of test compounds and relevant controls to determine the effect of the test products on the gut microbiome. […] Changes in ammonium production were assessed by sampling at the start of incubation and after 48 hours. […] Quantitative analysis of the SCFA was done by means of capillary gas chromatography, coupled with a flame ionization detector (FID). […]

Experiment [2] has as its system human gut microbiome. Nature of the experiment: Short term colonic simulation (48 hours colonic fermentation): overall fermentative activity, pH and gas production. The following applies: pre-digested products, fecal inoculum of a single human donor, triplicate; 0-6 hours; doses of Table 1. The text has this: The test products used in these experiments included a red acerola fruit powder containing 20% vitamin C and a green acerola fruit powder containing 34% vitamin C provided by Naturex-Givaudan. Commercial synthetic ascorbic acid and a 55:45 mixture of fructose and glucose served as relevant control groups. The test products contained a fraction of digestible compounds (sugar, for e.g.) that, in vivo, are absorbed in the small intestine following conversion to small molecules by digestive enzymes. […] Stock solutions of test products and controls were prepared and exposed to conditions simulating oral, gastric, and small intestinal passage. Typically, a dialysis procedure is employed to simulate absorption of small molecules in the small intestine, but this step was omitted for these test products, as the dialysis procedure would lead to losses of compounds in acerola (polyphenols) that would reach the colon in vivo and exert an effect on the microbiome. […] Changes in ammonium production were assessed by sampling at the start of incubation and after 48 hours. Analysis of microbial community structure was performed at the start of the incubation and after 48 hours. pH was measured in each reactor at each time point as a single repetition. Gas production was measured in the headspace of the fermentation vessels as a single repetition.

In experiment [3] the test system is human gut microbiome. Nature of the experiment: Short term colonic simulation: changes in community composition by 16S-targeted Illumina sequencing (heat map, LEfSe, beta diversity). The settings on record: after 48 hours; ascorbic acid 1.67 g/L; comparator not stated. The text has this: The test products used in these experiments included a red acerola fruit powder containing 20% vitamin C and a green acerola fruit powder containing 34% vitamin C provided by Naturex-Givaudan. Commercial synthetic ascorbic acid and a 55:45 mixture of fructose and glucose served as relevant control groups. The test products contained a fraction of digestible compounds (sugar, for e.g.) that, in vivo, are absorbed in the small intestine following conversion to small molecules by digestive enzymes. […] Stock solutions of test products and controls were prepared and exposed to conditions simulating oral, gastric, and small intestinal passage. […]
Sampling was performed periodically with a syringe through a rubber septum. […] Changes in ammonium production were assessed by sampling at the start of incubation and after 48 hours. […]
The methodology applied involves primers that span 2 hypervariable regions (V3-V4) of the 16S rRNA gene, i.e. primers 341F-785R described in Bekliz et al (Bekliz, M., Pramateftaki, P., Battin, T. J. et al. Viral diversity is linked to bacterial community composition in alpine stream biofilms. ISME COMMUN. 2, 27 (2022). https://doi.org/10.1038/s43705-022-00112-9). […] Read assembly and cleanup was largely derived from the MiSeq SOP described by the Schloss lab. […]

The structures appear in SMILES notation.

For the compound `O=C1O[C@H]([C@@H](O)CO)C(O)=C1O` [Ascorbic acid, ascorbic acid], in experiment [1], the propionate production entry is on record as “Each product, except ascorbic acid, stimulated propionate production”. In experiment [2], the pH shift entry was “failed to produce a significant shift in pH”. In addition, the “strongest enrichments (LEfSe), OTUs of the genera/families” value in experiment [3] was “Bacteroides, Lachnoclostridium, GCA-900066575, Anaerostipes, Agathobacter, Oscillibacter, Alistipes, Lachnospiraceae, Flavonifractor, Coprococcus and Blautia”.
